According to US20250326732A1 (Pretzel Therapeutics, Inc., priority 2021, published 2025):

target: POLRMT (Homo sapiens (Human), UniProt O00411); assay: homogeneous TR-FRET assay of mitochondrial transcription (inhibition of POLRMT); type: biochemical; conditions: 7.5 nM POLRMT, 15 nM TFB2M, 30 nM TFAM, 0.5 nM DNA template, 500 μM NTPs, 37° C. for 60 minutes
Method in brief: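 POLRMT transcription from linearized pUC-LSP DNA template; RNA product detected by hybridization of ATTO647 acceptor (1 nM) and biotinylated donor (3 nM) probes plus Europium-streptavidin. Reaction stopped with EDTA/700 mM NaCl buffer, pH 7.5.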

POLRMT, sequence (O00411 42-1230): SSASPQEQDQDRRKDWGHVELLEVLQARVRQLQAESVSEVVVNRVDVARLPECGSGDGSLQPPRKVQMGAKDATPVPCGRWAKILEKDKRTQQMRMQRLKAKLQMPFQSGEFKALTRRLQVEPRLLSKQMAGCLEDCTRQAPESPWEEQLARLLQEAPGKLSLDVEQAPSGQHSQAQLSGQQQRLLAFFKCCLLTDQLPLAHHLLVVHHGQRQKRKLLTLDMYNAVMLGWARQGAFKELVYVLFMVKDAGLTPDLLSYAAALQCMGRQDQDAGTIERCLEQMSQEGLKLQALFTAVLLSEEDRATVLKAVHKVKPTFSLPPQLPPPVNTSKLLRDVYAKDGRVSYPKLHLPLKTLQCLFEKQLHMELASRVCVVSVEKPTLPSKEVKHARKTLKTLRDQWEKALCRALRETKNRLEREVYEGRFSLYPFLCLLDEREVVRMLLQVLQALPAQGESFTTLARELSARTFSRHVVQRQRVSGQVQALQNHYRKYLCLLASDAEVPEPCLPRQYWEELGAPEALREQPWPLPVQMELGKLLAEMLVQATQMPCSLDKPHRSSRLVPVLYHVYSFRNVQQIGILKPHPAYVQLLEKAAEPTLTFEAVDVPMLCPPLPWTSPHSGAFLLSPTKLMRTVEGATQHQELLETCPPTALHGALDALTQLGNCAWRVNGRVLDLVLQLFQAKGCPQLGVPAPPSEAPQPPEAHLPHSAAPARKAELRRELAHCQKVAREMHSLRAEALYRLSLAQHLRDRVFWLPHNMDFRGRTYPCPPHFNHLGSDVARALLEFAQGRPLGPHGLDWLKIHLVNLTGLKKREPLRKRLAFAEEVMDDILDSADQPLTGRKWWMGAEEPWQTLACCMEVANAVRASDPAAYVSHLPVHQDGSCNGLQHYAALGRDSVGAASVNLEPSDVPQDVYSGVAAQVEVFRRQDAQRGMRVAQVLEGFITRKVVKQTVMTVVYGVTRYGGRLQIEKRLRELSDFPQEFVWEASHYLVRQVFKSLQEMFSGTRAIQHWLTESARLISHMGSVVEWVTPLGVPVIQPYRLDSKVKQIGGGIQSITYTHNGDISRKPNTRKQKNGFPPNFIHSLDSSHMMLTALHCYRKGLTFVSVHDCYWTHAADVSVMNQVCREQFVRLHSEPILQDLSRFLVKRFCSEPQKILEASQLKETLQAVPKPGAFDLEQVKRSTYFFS

Row | IC50 | SMILES
1 | 7000 nM | O=C(O)CCNc1ccc2c(-c3ccc(F)cc3Cl)cc(=O)oc2c1 [Example 129, 3-((4-(2-chloro-4-fluorophenyl)-2-oxo-2H-chromen-7-yl)amino)propanoic acid]
2 | 400 nM | CN(CCC(=O)O)c1ccc2c(-c3ccc(F)cc3Cl)cc(=O)oc2c1 [Example 130, 3-((4-(2-chloro-4-fluorophenyl)-2-oxo-2H-chromen-7-yl)(methyl)amino)propanoic acid]
3 | 8000 nM | O=C(O)CCNc1ccc2c(-c3ccccc3Cl)cc(=O)oc2c1 [Example 131, 3-((4-(2-chlorophenyl)-2-oxo-2H-chromen-7-yl)amino)propanoic acid]
4 | 1000 nM | CN(CCC(=O)O)c1ccc2c(-c3ccccc3Cl)cc(=O)oc2c1 [Example 132, 3-((4-(2-chlorophenyl)-2-oxo-2H-chromen-7-yl)(methyl)amino)propanoic acid]
5 | 700 nM | Cc1ccccc1-c1cc(=O)oc2cc(N(C)CCC(N)=O)ccc12 [Example 133, 3-(methyl(2-oxo-4-(o-tolyl)-2H-chromen-7-yl)amino)propanamide]
6 | 200 nM | Cc1ccccc1-c1cc(=O)oc2cc(N(C)CC(=O)NCC(N)=O)ccc12 [Example 134, N-(2-amino-2-oxoethyl)-2-(methyl(2-oxo-4-(o-tolyl)-2H-chromen-7-yl)amino)acetamide]
7 | 9000 nM | CNC(=O)C1CC1c1ccc2c(-c3ccccc3C)cc(=O)oc2c1 (stereo not drawn) [Example 135, chiral-N-methyl-2-(2-oxo-4-(o-tolyl)-2H-chromen-7-yl)cyclopropane-1-carboxamide]
8 | 200 nM | CNC(=O)C1CC1c1ccc2c(-c3ccccc3C)cc(=O)oc2c1 (stereo not drawn) [Example 136, chiral-N-methyl-2-(2-oxo-4-(o-tolyl)-2H-chromen-7-yl)cyclopropane-1-carboxamide]
9 | 900 nM | CN(CCC(N)=O)c1ccc2c(-c3ccc(F)cc3Cl)cc(=O)oc2c1 [Example 137, 3-((4-(2-chloro-4-fluorophenyl)-2-oxo-2H-chromen-7-yl)(methyl)amino)propanamide]
10 | 2000 nM | CNC(=O)CCN(C)c1ccc2c(-c3ccc(F)cc3Cl)cc(=O)oc2c1 [Example 138, 3-((4-(2-chloro-4-fluorophenyl)-2-oxo-2H-chromen-7-yl)(methyl)amino)-N-methylpropanamide]
11 | 100 nM | Cc1ccccc1-c1cc(=O)oc2cc(N(C)CC(=O)NC3CCOCC3)ccc12 [Example 139, 2-(methyl(2-oxo-4-(o-tolyl)-2H-chromen-7-yl)amino)-N-(tetrahydro-2H-pyran-4-yl)acetamide]
12 | 900 nM | CNC(=O)CCN(C)c1ccc2c(-c3ccccc3C)cc(=O)oc2c1 [Example 140, N-methyl-3-(methyl(2-oxo-4-(o-tolyl)-2H-chromen-7-yl)amino)propanamide]
13 | 20 nM | Cc1ccccc1-c1cc(=O)oc2cc(N(C)CC(=O)OC(C)C)ccc12 [Example 141, isopropyl N-methyl-N-(2-oxo-4-(o-tolyl)-2H-chromen-7-yl)glycinate]
14 | 20 nM | CCOC(=O)CN(C)c1ccc2c(-c3ccccc3C)cc(=O)oc2c1 [Example 142, ethyl N-methyl-N-(2-oxo-4-(o-tolyl)-2H-chromen-7-yl)glycinate]
15 | 30 nM | COC(=O)CN(C)c1ccc2c(-c3ccccc3C)cc(=O)oc2c1 [Example 143, methyl N-methyl-N-(2-oxo-4-(o-tolyl)-2H-chromen-7-yl)glycinate]
16 | 100 nM | Cc1ccccc1-c1cc(=O)oc2cc(N(C)CCC(=O)O)ccc12 [Example 144, 3-(methyl(2-oxo-4-(o-tolyl)-2H-chromen-7-yl)amino)propanoic acid]
17 | 4000 nM | Cc1ccccc1-c1cc(=O)oc2cc(NCCC(=O)O)ccc12 [Example 145, 3-((2-oxo-4-(o-tolyl)-2H-chromen-7-yl)amino)propanoic acid]
18 | 300 nM | Cc1ccccc1-c1cc(=O)oc2cc(CN(C)C(=O)N3CCC[C@H](C(=O)O)C3)ccc12 [Example 146, (S)-1-(methyl((2-oxo-4-(o-tolyl)-2H-chromen-7-yl)methyl)carbamoyl)piperidine-3-carboxylic acid]
19 | 300 nM | Cc1ccccc1-c1cc(=O)oc2cc(CN(C)C(=O)N3CCC(C(=O)O)CC3)ccc12 [Example 147, 1-(methyl((2-oxo-4-(o-tolyl)-2H-chromen-7-yl)methyl)carbamoyl)piperidine-4-carboxylic acid]
20 | 2000 nM | Cc1ccccc1-c1cc(=O)oc2cc(N[C@H](C)CC(=O)O)ccc12 [Example 148, (R)-3-((2-oxo-4-(o-tolyl)-2H-chromen-7-yl)amino)butanoic acid]
21 | 1000 nM | Cc1ccccc1-c1cc(=O)oc2cc(N[C@@H](C)CC(=O)O)ccc12 [Example 149, (S)-3-((2-oxo-4-(o-tolyl)-2H-chromen-7-yl)amino)butanoic acid]

Row | IC50 | SMILES
22 | 2000 nM | Cc1ccccc1-c1cc(=O)oc2cc(CNC(=O)N3CCC[C@H](C(=O)O)C3)ccc12 [Example 150, (S)-1-(((2-oxo-4-(o-tolyl)-2H-chromen-7-yl)methyl)carbamoyl)piperidine-3-carboxylic acid]
23 | 3000 nM | Cc1ccccc1-c1cc(=O)oc2cc(CNC(=O)N3CCC(C(=O)O)CC3)ccc12 [Example 151, 1-(((2-oxo-4-(o-tolyl)-2H-chromen-7-yl)methyl)carbamoyl)piperidine-4-carboxylic acid]
24 | 300 nM | Cc1ccccc1-c1cc(=O)oc2cc(CNC(=O)C3CCC(C(=O)O)CC3)ccc12 [Example 152, (1R,4R)-4-(((2-oxo-4-(o-tolyl)-2H-chromen-7-yl)methyl)carbamoyl)cyclohexane-1-carboxylic acid]
25 | 200 nM | Cc1ccccc1-c1cc(=O)oc2cc(CNC(=O)C3CCC(C(=O)O)CC3)ccc12 (stereo not drawn) [Example 153, 4-(((2-oxo-4-(o-tolyl)-2H-chromen-7-yl)methyl)carbamoyl)cyclohexane-1-carboxylic acid]
26 | 400 nM | Cc1ccccc1-c1cc(=O)oc2cc(N(C)CC(C)C(=O)O)ccc12 (stereo not drawn) [Example 155-2]
27 | 200 nM | Cc1ccccc1-c1cc(=O)oc2cc(CN(C)C(=O)C3CCC(C(=O)O)CC3)ccc12 [Example 156, (1R,4R)-4-(methyl((2-oxo-4-(o-tolyl)-2H-chromen-7-yl)methyl)carbamoyl)cyclohexane-1-carboxylic acid]
28 | 2000 nM | Cc1ccccc1-c1cc(=O)oc2cc(CNC(=O)C3CCC(C(=O)O)CC3)ccc12 [Example 157, (1S,4S)-4-(((2-oxo-4-(o-tolyl)-2H-chromen-7-yl)methyl)carbamoyl)cyclohexane-1-carboxylic acid]
29 | 800 nM | Cc1ccccc1-c1cc(=O)oc2cc(CN(C)C(=O)C3CCC(C(=O)O)CC3)ccc12 [Example 158, (1S,4S)-4-(methyl((2-oxo-4-(o-tolyl)-2H-chromen-7-yl)methyl)carbamoyl)cyclohexane-1-carboxylic acid]
30 | > 100000 nM | CCOC(=O)[C@H]1CCCN(C(=O)[C@@H](C)Oc2cc(C)cc3oc(=O)cc(-c4ccc(F)cc4)c23)C1 [Example 159, ethyl (S)-1-((R)-2-((4-(4-fluorophenyl)-7-methyl-2-oxo-2H-chromen-5-yl)oxy)propanoyl)piperidine-3-carboxylate]
31 | > 100000 nM | Cc1cc(O[C@H](C)C(=O)N2CCC[C@H](C(=O)O)C2)c2c(-c3ccc(F)cc3)cc(=O)oc2c1 [Example 160, (S)-1-((R)-2-((4-(4-fluorophenyl)-7-methyl-2-oxo-2H-chromen-5-yl)oxy)propanoyl)piperidine-3-carboxylic acid]
32 | > 100000 nM | Cc1cc(O[C@H](C)C(=O)N2CCCCC2)c2c(-c3ccc(F)cc3)cc(=O)oc2c1 [Example 161, (R)-4-(4-fluorophenyl)-7-methyl-5-((1-oxo-1-(piperidin-1-yl)propan-2-yl)oxy)-2H-chromen-2-one]
33 | > 100000 nM | Cc1cc(O[C@H](C)C(=O)N(C)C)c2c(-c3ccc(F)cc3)cc(=O)oc2c1 [Example 162, (R)-2-((4-(4-fluorophenyl)-7-methyl-2-oxo-2H-chromen-5-yl)oxy)-N,N-dimethylpropanamide]
34 | 500 nM | COCc1cc(C)c2c(-c3ccccc3C)cc(=O)oc2c1 [Example 163, 7-(methoxymethyl)-5-methyl-4-(o-tolyl)-2H-chromen-2-one]
35 | 4000 nM | Cc1ccccc1-c1cc(=O)oc2cc(NCc3ccccn3)ccc12 [Example 164, 7-((pyridin-2-ylmethyl)amino)-4-(o-tolyl)-2H-chromen-2-one]
36 | 3000 nM | Cc1ccccc1-c1cc(=O)oc2cc(NCc3nccs3)ccc12 [Example 165, 7-((thiazol-2-ylmethyl)amino)-4-(o-tolyl)-2H-chromen-2-one]
37 | 5000 nM | Cc1ccccc1-c1cc(=O)oc2cc(NCc3ncco3)ccc12 [Example 166, 7-((oxazol-2-ylmethyl)amino)-4-(o-tolyl)-2H-chromen-2-one]
38 | 100 nM | Cc1ccccc1-c1cc(=O)oc2cc(N(C)Cc3nccs3)ccc12 [Example 167, 7-(methyl(thiazol-2-ylmethyl)amino)-4-(o-tolyl)-2H-chromen-2-one]
39 | 90 nM | Cc1ccccc1-c1cc(=O)oc2cc(N(C)Cc3ccccn3)ccc12 [Example 168, 7-(methyl(pyridin-2-ylmethyl)amino)-4-(o-tolyl)-2H-chromen-2-one]
40 | 3000 nM | Cc1ccccc1-c1cc(=O)oc2cc(NCc3ccn[nH]3)ccc12 [Example 169, 7-(((1H-pyrazol-5-yl)methyl)amino)-4-(o-tolyl)-2H-chromen-2-one]
41 | > 100000 nM | Cc1ccccc1-c1cc(=O)oc2cc(C(=O)N3CCCC(N(C)C)C3)ccc12 (stereo not drawn) [Example 170, 7-(3-(dimethylamino)piperidine-1-carbonyl)-4-(o-tolyl)-2H-chromen-2-one]
42 | > 100000 nM | CC(=O)N(C)[C@@H]1CCCN(C(=O)c2ccc3c(-c4ccccc4C)cc(=O)oc3c2)C1 [Example 172, (R)—N-methyl-N-(1-(2-oxo-4-(o-tolyl)-2H-chromene-7-carbonyl)piperidin-3-yl)acetamide]
